# Measured values as given in paper PMC5365251, “Biophysical assay for tethered signaling reactions reveals tether-controlled activity for the phosphatase SHP-1” (Science Advances, 2017).
# Test system: phosphorylated ITIM peptide on PEG28
# Assay: Calculation of local concentration, dephosphorylation time and rate enhancement from fitted parameters
# Set-up: species or system mouse
# Method: The tethered enzymatic SPR assay also produced an estimate for the reach parameter (L), which was 23 nm. This number corresponds to a phosphorylated substrate experiencing a maximum local SHP-1 concentration of 45 μM when tethered, compared to, for example, a concentration of 1 μM in solution (Fig. 2A) or in the cytoplasm of immune cells (see Discussion).
# Activatory and inhibitory immune receptors are both known to cluster in the plasma membrane ([11]–[15]), but the extent and consequences of clustering remain poorly understood. In the absence of clustering, a phosphorylation site on the cytoplasmic tails of these receptors will experience the low ~1-μM concentration of cytoplasmic SHP-1 [based on 280,000 copies of SHP-1 in cytotoxic T cells ([30]) with a radius of 5 μm]. Tethering of SHP-1 to nonclustered immune receptors at distances >50 nm results in even lower concentrations (for example, 0.04 μM when receptors are 50-nm apart), but when clustered within 5 nm, we can now estimate that this phosphorylated site will experience an SHP-1 concentration of 45 μM (Fig. 8A). […] These concentrations are calculated using the formula for σ with L = 23 nm for r = 5 and 50 nm (see Materials and Methods). We note that this is based on a reach of L = 23 nm, which represents SHP-1 bound to an ITIM on PEG28 dephosphorylating another ITIM on PEG28.
# The combined effects induced by SHP-1 tethering on allosteric activation (20-fold) and local substrate concentration (45-fold) can be summarized by calculating the dephosphorylation rate ([SHP-1] × kcat* ).
# A key component of the models (described below) is the calculation of the local substrate concentration that a tethered enzyme experiences. We assume that the motion of an unbound phosphorylated peptide (state A) and the motion of SHP-1 bound to a phosphorylated peptide (state B) can both be approximated by the worm-like chain model, which is a widely used polymer model. […]
substance,measurement,setting,value
"SHP-1: murine SHP-1 tyrosine phosphatase with an N-terminal 6× His tag, expressed in E. coli",increase in overall dephosphorylation rate when tethered and clustered,"[SHP-1] × kcat*, 45 μM × 0.0118 versus 1 μM × 0.000603 μM^-1 s^-1",900 fold
same,increase in SHP-1 (local substrate) concentration on tethering to clustered receptors,solution 1 μM versus tethered and clustered 45 μM,45 fold
same,reduction of reaction time by tethering,time to 50% dephosphorylation with versus without tethering,125 fold
